One may read the Ki as a measure of affinity in units of concentration, obtained from inhibition or displacement. A higher Ki goes with weaker binding.

In one assay the test system is mice. Kind of assay: Formalin test carried out on mice (FTm). It counts as in vivo. The conditions noted are these: 1 po, percentage change relative to control. How it is done:
In the formalin test, the testing to determine the antinociceptive effect of the compounds according to the invention is carried out on male mice (NMRI, 20 to 30 g body weight, Iffa, Credo, Belgium).
In the formalin test as described by D. Dubuisson et al., Pain 1977, 4, 161-174, a distinction is drawn between the first (early) phase (0 to 15 minutes after the injection of formalin) and the second (late) phase (15 to 60 minutes after the injection of formalin). The early phase, as an immediate reaction to the injection of formalin, is a model of acute pain, whereas the late phase is regarded as a model of persistent (chronic) pain (T. J. Coderre et al., Pain 1993, 52, 259-285). The corresponding descriptions in the literature are introduced herewith by way of reference and form part of the disclosure.
The compounds according to the invention are tested in the second phase of the formalin test to obtain information about the effects of substances on chronic/inflammatory pain. […]
Subsequently, the nociceptive behaviour is continuously detected by observing the animals over a test period of three minutes in the second (late) phase of the formalin test (21 to 24 minutes after the injection of formalin). The pain behaviour is quantified by adding up the seconds over which the animals display licking and biting of the paw in question during the test period. […]

The target of assay [1] is rat-species vanilloid receptor 1 (VR1/TRPV1) (Rattus norvegicus (Rat), UniProt O35433). Kind of assay: FLIPR Ca2+ influx assay on rat dorsal root ganglia cells, capsaicin stimulus (method I). It counts as cell-based. The conditions noted are these: capsaicin (Cap).
Chain of rat-species vanilloid receptor 1 (VR1/TRPV1) (O35433 whole entry): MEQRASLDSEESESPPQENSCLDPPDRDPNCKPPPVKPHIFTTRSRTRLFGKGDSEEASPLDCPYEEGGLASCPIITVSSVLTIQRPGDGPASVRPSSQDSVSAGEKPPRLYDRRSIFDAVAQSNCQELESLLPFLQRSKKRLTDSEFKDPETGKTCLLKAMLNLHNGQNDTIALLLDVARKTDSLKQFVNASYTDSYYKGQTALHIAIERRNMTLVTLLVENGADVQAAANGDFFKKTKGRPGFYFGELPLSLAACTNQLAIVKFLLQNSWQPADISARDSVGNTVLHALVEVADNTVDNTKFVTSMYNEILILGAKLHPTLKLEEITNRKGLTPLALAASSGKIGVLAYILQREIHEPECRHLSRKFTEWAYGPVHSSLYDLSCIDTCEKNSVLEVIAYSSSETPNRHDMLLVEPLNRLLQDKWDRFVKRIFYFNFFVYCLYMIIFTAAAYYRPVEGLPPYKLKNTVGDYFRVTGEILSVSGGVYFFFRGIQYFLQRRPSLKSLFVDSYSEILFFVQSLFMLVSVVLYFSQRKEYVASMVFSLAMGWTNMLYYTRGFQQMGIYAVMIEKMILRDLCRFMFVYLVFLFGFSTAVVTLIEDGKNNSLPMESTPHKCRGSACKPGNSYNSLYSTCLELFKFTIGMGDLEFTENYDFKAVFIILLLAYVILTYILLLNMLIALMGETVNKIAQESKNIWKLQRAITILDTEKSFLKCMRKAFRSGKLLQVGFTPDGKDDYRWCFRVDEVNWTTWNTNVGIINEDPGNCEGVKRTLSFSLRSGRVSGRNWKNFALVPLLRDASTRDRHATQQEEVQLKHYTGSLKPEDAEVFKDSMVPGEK

For `O=C(Cc1cccc(F)c1)NCc1cc(C(F)(F)F)nn1-c1cccc(Cl)c1` [Example 74, N-((1-(3-chlorophenyl)-3-(trifluoromethyl)-1H-pyrazol-5-yl)methyl)-2-(3-fluorophenyl)acetamide], the FTm in the assay with mice was 13%. For the same compound, the Ki in assay [1] was determined as 85 nM.

These data come from patent US9120756B2, “Substituted phenylureas and phenylamides as vanilloid receptor ligands” (Gruenenthal GmbH, priority 2009, dated 2015).
